Test results: patent publication US20030134824A1, “Beta-cyclodextrin dimers and phthalocyanines and uses thereof” (priority 2001, published 2003)

Tests used:
[1] = Photochemical cleavage of the dimers by bound phthalocyanines, monitored by 1H NMR; type: physicochemical; conditions: dimer 2.5 mM, photosensitizer 0.14 mM, 5% DMSO-d6 in D2O, O2, light >540 nm, 25° C.
Method: All of the photocleavage reactions were carried out using the same apparatus, as described previously (U.S. Ser. No. 09/352,529, filed Jul. 13, 1999, now allowed; Ruebner et al. 1999). A halogen lamp (50 W) was set up with a 540 nm cut-off filter and a focusing lens. The NMR tube in which the reactions were run was placed in the most strongly focused area, and oxygen was bubbled continuously through the solution while the photocleavage reactions were run. To monitor the reactions, ^1H NMR's were taken at regular intervals, whereby the disappearance of the alkene peaks and the appearance of the single formyl peak could be observed.
The dimers were at a concentration of 2.5 mM while the photosensitizers were at 0.14 mM in 5% DMSO-d6 in D2O. Here dimer 21 was cleaved using phthalocyanine 11. It can clearly be seen that the amount of alkene (doublet at ˜6.2 ppm) decreases and the formyl peak (singlet at ˜8.4 ppm) appears as the reaction progresses, and that no other peaks are seen in this area. […]
To a solution of β-cyclodextrin dimer 17 (5.9 mg, 2.35×10^−6 mol) and potassium carbonate (2 mg) in D2O (1.00 mL) was added a 3 mM solution of phthalocyanine 6 (0.17 mg, 1.50×10^−7 mol) in DMSO-d6 (50 μL). […] The reaction was monitored by ^1H NMR, by observance of the disappearance of the alkene peaks and the appearance of the formyl peak. […]

[2] = Binding of BNS to β-cyclodextrin dimers by fluorescence titration; conditions: water, ca. 25° C.
Method: Binding constants for a few of the possible pairs were determined by a fluorescence competition method previously used for cyclodextrin dimers, competing the substrate of interest with 2-(p-tert-butylanilino)naphthalene-6-sulfonic acid 22, (termed BNS, Breslow et al. 1989). [drawing 26]
BNS is fluorescent when bound into a hydrophobic cavity such as that of a cyclodextrin, but only weakly fluorescent in water solution. Only the sulfonated phthalocyanines were soluble enough for this method.
The binding constant of BNS 22 to each dimer was determined as previously (Breslow et al. 1989, Ruebner et al. 1999) by titrating BNS into a dimer solution in a fluorescence cell, then exciting this solution at 330 nm and measuring the fluorescent emission at 438 nm. The binding constant of phthalocyanine to dimer was measured by titration of BNS into a 1:1 mixture of dimer and phthalocyanine. […] The binding constant of BNS to each dimer is given by K=intercept/slope, and the binding constant of the phthalocyanine can be calculated as KI=(K/K′−1)/[I], where K′ is the apparent binding constant of BNS to the dimer in presence of phthalocyanine, and [I] is the concentration of phthalocyanine (Ruebner et al. 1996). […]
The binding constant for BNS to cyclodextrin dimer 21 was determined by the fluorescence emission method. […] The area under the peak between 400 and 500 nm was measured for each addition. […]

[3] = Microcalorimetric titration with p-tert-butylbenzoic acid; type: binding
Method: β-cyclodextrin (CD) monomer 23 (6.4 mg, 0.005 mmol) was dissolved in 0.20 M pH 9.0 Na2CO3/NaHCO3 buffer (5.00 mL) to make a 1.0 mM solution. p-tert-Butylbenzoic acid (11.0 mg, 0.062 mmol) was dissolved in 6.16 mL of the same buffer to make a 10.0 mM solution. Both solutions were degassed under reduced pressure with a sonicator for 5 minutes immediately prior to the binding study. The β-CD monomer 23 solution (2.50 mL) was put into the sample cell compartment of an Omega microcalorimeter, whereas the p-tert-butyl-benzoic acid was loaded in a 250 μL syringe and then assembled onto the calorimeter. The system was equilibrated until RMS error was less than 5×10^−3 with the syringe spinning at 400 rpm. The p-tert-butylbenzoic acid solution was then injected into the cell in 25 injections (10 μL, 7 seconds per injection). […] Injection data were automatically collected by the computer, and the data was analyzed by ORIGIN software with the single-binding-site model. […]
β-Cyclodextrin (4.0 mg, 0.0035 mmol) was dissolved in 0.20 M pH 9.0 Na2CO3/NaHCO3 buffer (3.53 mL) to make a 1.0 mM solution. p-tert-butyl-benzoic acid (10.0 mg, 0.056 mmol) was dissolved in 5.60 mL of the same buffer to make a 10.0 mM solution. […] Injection data were automatically collected by the computer, and the data was analyzed by ORIGIN software with the single-binding-site model. […]

| binding constant of BNS to the dimer [2] [M⁻¹] | binding constant with 4-tert-butylbenzoic acid [3] | Compound | time for 50% cleavage of the dimer by phthalocyanine 6 [1] [min] | time for 50% cleavage of the dimer by phthalocyanine 14 [1] [min] |
| --- | --- | --- | --- | --- |
| 418000 | – | CNC(=O)CCCS/C=C\SCCCC(=O)NC [Dimer 18] | 55 | 6 |
| – | 1.7×10^4 M^− | OC[C@H]1O[C@@H]2O[C@H]3[C@H](O)[C@@H](O)[C@@H](O[C@H]4[C@H](O)[C@@H](O)[C@@H](O[C@H]5[C@H](O)[C@@H](O)[C@@H](O[C@H]6[C@H](O)[C@@H](O)[C@@H](O[C@H]7[C@H](O)[C@@H](O)[C@@H](O[C@H]8[C@H](O)[C@@H](O)[C@@H](O[C@H]1[C@H](O)[C@H]2O)O[C@@H]8CO)O[C@@H]7CO)O[C@@H]6CO)O[C@@H]5CO)O[C@@H]4CO)O[C@@H]3CO [β-cyclodextrin] | – | – |
